Entries after “also recorded” stand apart in the source; their conditions may differ.
Tested on: 578 cancer cell lines
Assay: PRISM multiplexed cellular viability screening
Format: cell-based
Details: relation to FOXA1 / FOXA1 target expression across cell lines
Experimental: The instant discovery was made using large-scale multiplex profiling of existing drugs against 578 cancer cell lines, employing a PRISM multiplexed cellular viability assay.
Parental cell lines were obtained from the Cancer Cell Line Encyclopedia (CCLE) project (1). PRISM cell line barcoding, pooling, and screening was performed as previously described with several improvements to the original method (2). First, the lentiviral vector was modified to encode the unique barcode identifier at the end of the puromycin resistance gene. This enables barcodes to be detected using a variant of the mRNA capture and Luminex detection method developed for the L1000 gene expression assay (3). Second, a set of ten inert barcodes were spiked-in to each well of each plate after cell lysis to control for variation in PCR amplification as detailed below.
Luminex technology produced .Ixb files containing data for each Luminex bead observed during detection. These .Ixb files were processed to compute Median Fluorescence Intensity (MFI) values, calculated as the median of the values obtained for all beads corresponding to a single PRISM barcode.
MFI values were log-transformed (log MFI) and used to perform basic quality control. To detect probable screening artifacts, log MFI values were centered to the median log MFI for each cell line on each plate in order to put the measurements from each cell line on the same scale. For each well on each plate, the median of these centered values was then standardized according to the global median and global MAD across all plate wells in the same position. Data from wells with a standardized score of greater than 5 or less than −5 were excluded from all further processing steps.
For each cell line on each plate, the distribution of MFI values observed for the DMSO-treated negative controls was compared to that of the positive controls using a robust form of the Strictly Standardized Mean Difference (SSMD*)′. Specifically, SSMD* was calculated as: […]
Data corresponding to SSMD values less than 2 were removed before calculating cell viability.
The data in the instant disclosure were produced according to two different screening protocols. In the PR500 protocol, ten inert barcodes were spiked-in to each well of each plate after cell lysis. For data produced using the PR500 protocol, normalized MFI (nMFI) values were computed by taking the ratio of each MFI value against the median of the inert barcodes within each well. […]
Cell viability was calculated as the ratio of nMFI to the median of the nMFI from the DMSO-treated negative controls for each cell line on each plate. […] The final viability values were calculated as the median of the batch-corrected cell viabilities from biological replicates for each cell line, compound and dose. […]

For `Nc1nc2ccc(Cl)cc2c2nc(-c3ccco3)nn12` [CGS-15943, reference compound], which “cell killing profile in PRISM” value is on record?
Its value is “cell killing profile specific for such FOXA1-dependent cancer cell lines; also recorded: selective killing of FOXA1-high cancer cell lines”.

Source: US12358918B2, “Aryl hydrocarbon receptor (AHR) activator compounds as cancer therapeutics” (THE BROAD INSTITUTE, INC., priority 2018, dated 2025)
